In patent US4312861A, “Pharmaceutical compositions containing N-alkyl-N-(nuclearly-substituted) benzylamines having vasotonia-regulating activity” (Hoechst Aktiengesellschaft, priority 1974, dated 1982):
Counter-ions that a name gives are not always drawn.

How the values were obtained:
mouse [1] = assay: Hot-plate test (Chen and Beckman); type: in vivo
Description: This test was performed on the mouse, according to Chen and Beckman (see Science 113 (1951), page 631). 50 mg/kg of the compound No. 2 (cf. formula sheet) which has been administered per os increase the reaction time of the animals by 70%.

perfused rabbit ear = assay: Blood-flow change in perfused isolated rabbit ear, vaso-dilator activity (Ringer-Norfenefrin solution)
Description: (3) Blood-flow change in an isolated rabbit ear
The tests were carried out according to Krakow-Pissemski (Pflugers Archiv 151 (1913), page 583 and 156 (1914), page 426). In Table 5a the estimated values of the vaso-constrictor activity in Ringer solutions of varying concentrations are given and in Table 5b values for vasodilatory activity in Ringer-Norfenefrin solutions of varying concentrations are given. As a comparison, the values obtained with the known preparation aescin sodium are given.

[2] = test system: carrageenin oedema in the rat paw; assay: Suppression of carrageenin oedema in the rat paw (Siegmund); type: in vivo; conditions: 3 h p.a.
Description: (7) Suppression of carrageenin oedema in the rat paw
The inflammation-reducing and anti-oedematous effects on carrageenin and serotonin oedemas in the rat paw were studied according to Siegmund et al (Proc. Soc. exp. Biol. Med. 95 (1957), page 729). The values are given as percentages, based on the values obtained in control tests using a dummy procedure. In this way, the antiphlogistic activity of the substances according to the invention was tested.

isolated vein sections = assay: Isolated vein section (modified Furchgott), contraction in adrenalin; parameters: species or system rabbit; conditions: in words
Description: (§1) (1) Isolated vein and aorta sections
(§2) The tests were carried out on isolated vein and aorta sections from rabbits in accordance with the modified method of Furchgott et al (J. Pharmacol, exp. Ther. 108 (1953), page 129). The contraction of the vein section in adrenalin and of the aorta section in noradrenalin, after administration of 10^-6 g/ml of the test compound was defined to have the base value of 100.

[3] = test system: permeability of the capillaries; assay: Histamine rash test (modified Halpern), capillary permeability; type: in vivo; conditions: 30 minutes before histamine
Description: The test according to Halpern (Presse medicale 65 (1949), page 949) was used in modified form. The suppressive effect of the compounds according to the invention on the permeability of the capillaries was tested. The blue coloration induced by intravenous administration of trypan blue at two intracutaneous histamine injection points per animal, (trypan blue administered 2 minutes before the histamine), was estimated according to the following scale of values:
indications of blue coloration
clear blue coloration =4
stong blue coloration =6
The preceding evaluation was made from the combined effect at the two injection points.
The test substances were administered i.p. 30 minutes before the histamine injection.

[4] = Toxicity in the mouse (Litchfield and Wilcoxon); type: in vivo; conditions: mouse, in vivo
Description: (§3) (6) Toxicity in the mouse
(§4) Toxicity was determined according to Litchfield and Wilcoxon (J. Pharmacol. exp. Ther. 97 (1949), page 399) in the mouse. In comparison, the values with the known substance aescin sodium salt were determined. Comparative tests with 0.1% solution, of venous and optical compatibility on the rabbit yielded similar results.

[5] = test system: writhing movements in the mouse; assay: Writhing test (Winter); type: in vivo
From the text: The analgesic activity of the compounds according to the invention were studied by the method of Winter et al (Proc. Soc. exp. Biol. Med, 111 (1962), page 544), in which the suppression of writhing movements in the mouse was observed.

[6] = test system: isolated guinea-pig heart; assay: Relative coronary blood-flow change in isolated guinea-pig heart (Langendorff)
Description: (4) Relative coronary blood-flow change in an isolated guinea-pig heart.
The tests were carried out according to the method of Langendorff (Pflugers Archiv. 61 (1895), page 219).
In Table 5, the change in coronary blood flow after administration of various quantities of the test substance is compared with that after administration of the known compounds heptaminol and Aescin sodium salt.

isolated portal vein = assay: Isolated rat's portal vein (Berti), increase in tonus
Description: (2) Isolated rat's portal vein
The tests on the rat's portal vein, an organ with its own rhythm, were performed according to the method of Berti et al (Arch. int. Pharmacodyn. 184 (1970), page 328). In Table 4, the increase in tonus at various adrenalin concentrations is given in milligrams. As a comparison, the values for the known substance heptaminol (=6-amino-2-methylheptane-2-ol) are also given.

mouse [7] = assay: Toxicity in the mouse (Litchfield and Wilcoxon); type: in vivo
Description: as §3, §4

isolated aorta sections = assay: Isolated aorta section (modified Furchgott), contraction in noradrenalin; parameters: species or system rabbit; conditions: in words
Description: as §1, §2

[8] = 100 μg (first figure where two are given)

Compound | Relative change in blood flow, vaso-dilator activity (perfused rabbit ear; 10^-5 g/ml) | Relative change in blood flow, vaso-dilator activity (perfused rabbit ear; 10^-6 g/ml) | Relative change in blood flow, vaso-dilator activity (perfused rabbit ear; 10^-7 g/ml) | Suppression of carrageenin oedema in the paw (antiphlogistic activity) ([2]; 100 mg/kg p.o.) | Histamine rash test, blue coloration score (0 = none, 2 = indications, 4 = clear, 6 = strong) ([3]; 1.0 mg/kg i.p.) | Histamine rash test, blue coloration score (0 = none, 2 = indications, 4 = clear, 6 = strong) ([3]; 3.0 mg/kg i.p.) | LD50 ([4]; ip) | Suppression of writhing movements ([5]; 50 mg/kg p.o.) | LD50 ([4]; po) | Increase in tonus, isolated rat's portal vein (isolated portal vein; 10^-4 g/ml) | Increase in tonus, isolated rat's portal vein (isolated portal vein; 10^-5 g/ml) | Relative change in coronary blood flow [6, 8] | Relative change in blood flow, vaso-dilator activity (perfused rabbit ear; 3 × 10^-5 g/ml) | also measured
Cc1c(N(C)C)c(=O)n(-c2ccccc2)n1C [aminophenazone, reference compound] |  |  |  |  |  |  |  |  |  |  |  |  |  | ED50 (mouse [1]; Mus musculus, comparison substance, read-out: Effective dose of 50% (ED 50), hot-plate test): 84 mg/kg
CCCCCCC(C)NCc1c(C)cc(C)cc1C (stereo not shown) [Serial No. 26] | +58 | +29 | +7 | 39% | 1.8 | 1.2 | 50 to 100 mg/kg | 45% |  |  |  |  |  | Vasotonic activity compared with aescin sodium (vein, Table 2) (isolated vein sections): stronger vasotonic activity than the comparison substance aescin sodium; Relative change in coronary blood flow ([6]; 10 μg (first figure where two are given)): +28; Relative change in coronary blood flow ([6]; 30 μg (first figure where two are given)): +57
CCCCCC(C)NCc1c(C)cc(C)cc1C (stereo not shown) [Serial No. 2, 2-(2,4,6-Trimethylbenzyl)-aminoheptane hydrochloride] | +73 | +31 | +3 | 46% | 2.6 | 1.7 | 114 mg/kg | 53% | 940 mg/kg | +185 milligrams | +106 milligrams | +120 |  | Relative change in blood flow, vaso-dilator activity (perfused rabbit ear; 10^-4 g/ml): +112; Suppression of carrageenin oedema in the paw (antiphlogistic activity) ([2]; 25 mg/kg p.o.): 53%; Suppression of carrageenin oedema in the paw (antiphlogistic activity) ([2]; 63 mg/kg p.o.): 52%; Histamine rash test, blue coloration score (0 = none, 2 = indications, 4 = clear, 6 = strong) ([3]; 0.1 mg/kg i.p.): 3.5; Histamine rash test, blue coloration score (0 = none, 2 = indications, 4 = clear, 6 = strong) ([3]; 0.3 mg/kg i.p.): 3.4; Histamine rash test, blue coloration score (0 = none, 2 = indications, 4 = clear, 6 = strong) ([3]; 10.0 mg/kg i.p.): 1.9; Increase in reaction time of the animals (mouse [1]; 50 mg/kg per os): 70%; LD50 ([4]; iv): 11.7 mg/kg; Suppression of writhing movements ([5]; 40 mg/kg p.o.): 32%; Suppression of writhing movements ([5]; 63 mg/kg p.o.): 51%; Suppression of writhing movements ([5]; 100 mg/kg p.o.): 80%
CCCCCC(C)NCc1c(C)cc(C)cc1C (single isomer, unassigned) [compound 4] | +104 | +40 | +4 | 14% | 3.1 | 1.7 |  |  |  |  |  | +125 | +31 | Toxicity in the mouse (mouse [7]; i.p.): 50 to 100 mg/kg; Toxicity in the mouse (mouse [7]; i.v.): 12,4 mg/kg
CCC(C)C(C)NCc1c(C)cc(C)cc1C (stereo not shown) [Serial No. 27] |  | +4 |  |  | 3.6 | 1.9 | 100 to 250 mg/kg |  | 2400 mg/kg | +250 milligrams | +19 milligrams |  | +12 | Increase in tonus, isolated rat's portal vein (isolated portal vein; 10^-6 g/ml): -9 milligrams; Vasotonic activity compared with aescin sodium (aorta, Table 3) (isolated aorta sections): stronger vasotonic activity than the comparison substance aescin sodium
